Results taken from US12459951B2, “Compounds that interact with RAS superfamily proteins for treatment of cancers, inflammatory diseases, rasopathies, and fibrotic disease” (SHY Therapeutics, LLC, priority 2022, dated 2025).
Counter-ions that a name gives are not always drawn. Like-named read-outs stand apart in the source and are kept apart here.

How the values were obtained:
TNF-alpha = TNF-alpha Quantification Assay (ELISA), LPS-stimulated RAW 264.7; type: cell-based; conditions: Mus musculus, RAW264.7; at 10 μM; read-out: TNFα: % inh.
[1] = system: MiaPaca-2 (expressing KRAS G12C mutant); assay: Proliferation Assay (Cell Viability Assay); type: cell-based; conditions: Homo sapiens, MIA PaCa-2
Procedure, shortened: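 After 2–4 days' exposure at 37 °C, 5% CO2 to a single 10 μM final concentration or a dilution series (IC50), percent proliferation inhibition was derived from CellTiter 96 Aqueous One viability readings. The medium contained 0.3% DMSO and 10% FBS. KRAS G12C MiaPaca-2 cells were plated at 2000–5000/well the day before.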

KRas G12D mutant = assay: Ras GTP Binding Domain Inhibition Assay (Ras Superfamily Assay); conditions: for KRas G12D mutant + SOS: % inh.: with SOS; for KRas G12D mutant: % inh.: without SOS
Procedure, shortened: (§1)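 Ni-plate capture of His-tagged protein (10-30 μg/mL, o/n 4° C); cpd 20 μM or dilution series, 1% DMSO, 3 h RT ± Sos 556-1049 last h; 100 nM Cy-labelled GTP 45 min RT; 3× wash; fluorescence read.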

KRas wild type = assay: as above; conditions: for KRas wild type + SOS: % inh.: with SOS; for KRas wild type: % inh.: without SOS
Procedure, shortened: as §1

[2] = read-out: Proliferation in MiaPaca-2: IC50

Row | Structure (SMILES) | IC50 [1, 2] [nM] | KRas G12D mutant + SOS: % inh. (KRas G12D mutant; 20 μM compound) | KRas G12D mutant: % inh. (KRas G12D mutant; 20 μM compound) | KRas wild type + SOS: % inh. (KRas wild type; 20 μM compound) | KRas wild type: % inh. (KRas wild type; 20 μM compound) | KRas G12D mutant + SOS: % inh. (KRas G12D mutant; at 20 μM) | KRas G12D mutant: % inh. (KRas G12D mutant; at 20 μM) | KRas wild type + SOS: % inh. (KRas wild type; at 20 μM) | KRas wild type: % inh. (KRas wild type; at 20 μM) | IC50 ([1]; Proliferation assay, MiaPaca-2, read-out: MiaPaca-2 IC50 (nM) Pancreatic) [nM] | inhibition at 10 µM (TNF-alpha) [%]
1 | CO[C@H]1CC[C@@H](Nc2nc(-c3nccn3C)nn3cc(-c4ccn(C(C)C)n4)c(C)c23)C1 (racemic) [Compound 1, rac 6-(1-Isopropyl-1H-pyrazol-3-yl)-N-((1R,3S)-3-methoxycyclopentyl)-5-methyl-2-(1-methyl-1H-imidazol-2-yl)pyrrolo[2,1-f][1,2,4]triazin-4-amine] | > 1000 | 0 (0 = 0% inhibition) | A (A = 1-25% inhibition) | A (A = 1-25% inhibition) | 0 (0 = 0% inhibition) | – | – | – | – | – | 1 to 24
2 | COCC1CCN(c2nc(-c3nccn3C)nn3cc(-c4ccn(C(C)C)n4)c(C)c23)C1 (racemic) [Compound 2, rac 6-(1-Isopropyl-1H-pyrazol-3-yl)-4-(3-(methoxymethyl)pyrrolidin-1-yl)-5-methyl-2-(1-methyl-1H-imidazol-2-yl)pyrrolo[2,1-f][1,2,4]triazine] | > 1000 | 0 (0 = 0% inhibition) | 0 (0 = 0% inhibition) | 0 (0 = 0% inhibition) | 0 (0 = 0% inhibition) | – | – | – | – | – | 25 to 49
3 | COC[C@@H]1CC[C@@H]1CNc1nc(-c2nccn2C)nn2cc(-c3ccn(C(C)C)n3)c(C)c12 (racemic) [Compound 3, rac 6-(1-Isopropyl-1H-pyrazol-3-yl)-N-(((1S,2R)-2-(methoxymethyl)cyclobutyl)methyl)-5-methyl-2-(1-methyl-1H-imidazol-2-yl)pyrrolo[2,1-f][1,2,4]triazin-4-amine] | > 1000 | 0 (0 = 0% inhibition) | 0 (0 = 0% inhibition) | 0 (0 = 0% inhibition) | 0 (0 = 0% inhibition) | – | – | – | – | – | 25 to 49
4 | COC1CCCN(c2nc(-c3nccn3C)nn3cc(-c4ccn(C(C)C)n4)c(C)c23)C1 (racemic) [Compound 4, rac 6-(1-Isopropyl-1H-pyrazol-3-yl)-5-methyl-2-(1-methyl-1H-imidazol-2-yl)-4-(3-(oxo-γ6-methyl)piperidin-1-yl)pyrrolo[2,1-f][1,2,4]triazine] | > 1000 | 0 (0 = 0% inhibition) | A (A = 1-25% inhibition) | A (A = 1-25% inhibition) | A (A = 1-25% inhibition) | – | – | – | – | – | 75 to 100
5 | CO[C@H]1CC[C@@H](Nc2nc(-c3nccn3C)nn3cc(-c4ccn(C(C)C)n4)c(-c4ccccc4)c23)C1 (racemic) [Compound 18, rac 6-(1-Isopropyl-1H-pyrazol-3-yl)-N-((1R,3S)-3-methoxycyclopentyl)-2-(1-methyl-1H-imidazol-2-yl)-5-phenylpyrrolo[2,1-f][1,2,4]triazin-4-amine hydrochloride] | > 1000 | 0 (0 = 0% inhibition) | A (A = 1-25% inhibition) | A (A = 1-25% inhibition) | B (B = 26-49% inhibition) | – | – | – | – | – | 1 to 24
6 | COCC1CCN(c2nc(-c3nccn3C)nn3cc(-c4ccn(C(C)C)n4)c(-c4ccccc4)c23)C1.Cl (racemic) [Compound 19, rac 6-(1-Isopropyl-1H-pyrazol-3-yl)-4-(3-(methoxymethyl)pyrrolidin-1-yl)-2-(1-methyl-1H-imidazol-2-yl)-5-phenylpyrrolo[2,1-f][1,2,4]triazine hydrochloride salt] | > 1000 | A (A = 1-25% inhibition) | B (B = 26-49% inhibition) | A (A = 1-25% inhibition) | A (A = 1-25% inhibition) | – | – | – | – | – | 25 to 49
7 | COCCNc1nc(-c2nccn2C)nn2cc(-c3ccn(C(C)C)n3)c(C)c12 [Compound 5, 6-(1-Isopropyl-1H-pyrazol-3-yl)-N-(2-methoxyethyl)-5-methyl-2-(1-methyl-1H-imidazol-2-yl)pyrrolo[2,1-f][1,2,4]triazin-4-amine] | > 1000 | – | – | – | – | – | – | – | – | – | 0

The next lines start with results.

Row | IC50 [1, 2] [nM] | KRas G12D mutant + SOS: % inh. (KRas G12D mutant; 20 μM compound) | KRas G12D mutant: % inh. (KRas G12D mutant; 20 μM compound) | KRas wild type + SOS: % inh. (KRas wild type; 20 μM compound) | KRas wild type: % inh. (KRas wild type; 20 μM compound) | KRas G12D mutant + SOS: % inh. (KRas G12D mutant; at 20 μM) | KRas G12D mutant: % inh. (KRas G12D mutant; at 20 μM) | KRas wild type + SOS: % inh. (KRas wild type; at 20 μM) | KRas wild type: % inh. (KRas wild type; at 20 μM) | IC50 ([1]; Proliferation assay, MiaPaca-2, read-out: MiaPaca-2 IC50 (nM) Pancreatic) [nM] | Structure (SMILES) | inhibition at 10 µM (TNF-alpha) [%]
8 | > 1000 | 0 (0 = 0% inhibition) | A (A = 1-25% inhibition) | A (A = 1-25% inhibition) | A (A = 1-25% inhibition) | – | – | – | – | – | COC[C@@H]1CC[C@@H]1CNc1nc(-c2nccn2C)nn2cc(-c3ccn(C(C)C)n3)c(-c3ccccc3)c12 (racemic) [Compound 20, rac 6-(1-Isopropyl-1H-pyrazol-3-yl)-N-(((1S,2R)-2-(methoxymethyl)cyclobutyl)methyl)-2-(1-methyl-1H-imidazol-2-yl)-5-phenylpyrrolo[2,1-f][1,2,4]triazin-4-amine] | 1 to 24
9 | > 1000 | 0 (0 = 0% inhibition) | B (B = 26-49% inhibition) | A (A = 1-25% inhibition) | A (A = 1-25% inhibition) | – | – | – | – | – | COC1CCCN(c2nc(-c3nccn3C)nn3cc(-c4ccn(C(C)C)n4)c(-c4ccccc4)c23)C1 (racemic) [Compound 21, rac 6-(1-Isopropyl-1H-pyrazol-3-yl)-4-(3-methoxypiperidin-1-yl)-2-(1-methyl-1H-imidazol-2-yl)-5-phenylpyrrolo[2,1-f][1,2,4]triazine] | 0
10 | 510 to 1000 | 0 (0 = 0% inhibition) | 0 (0 = 0% inhibition) | A (A = 1-25% inhibition) | 0 (0 = 0% inhibition) | – | – | – | – | – | COc1cccc(-c2cn3nc(-c4nccn4C)nc(N[C@@H]4CC[C@@H](OC)C4)c3c2-c2ccccc2)c1Cl.Cl (racemic) [Compound 34, rac 6-(2-Chloro-3-methoxyphenyl)-N-((1R,3R)-3-methoxycyclopentyl)-2-(1-methyl-1H-imidazol-2-yl)-5-phenylpyrrolo[2,1-f][1,2,4]triazin-4-amine hydrochloride] | 1 to 24
11 | 150 to 500 | – | – | – | – | B (B = 26-49% inhibition) | B (B = 26-49% inhibition) | A (A = 1-25% inhibition) | B (B = 26-49% inhibition) | – | COc1cccc(-c2cn3nc(-c4nccn4C)nc(N[C@@H]4CC[C@@H](OC)C4)c3c2-c2ccccc2)c1C (racemic) [Compound 270, rac 6-(3-Methoxy-2-methylphenyl)-N-((1R,3R)-3-methoxycyclopentyl)-2-(1-methyl-1H-imidazol-2-yl)-5-phenylpyrrolo[2,1-f][1,2,4]triazin-4-amine] | 75 to 100
12 | < 150 | – | – | – | – | – | – | – | – | 1 to 10 | Cc1c(-c2ccn(C(C)C)n2)cn2nc(-c3nccn3C)nc(Nc3ccn(C4CC4)n3)c12 [Compound 84, N-(1-Cyclopropyl-1H-pyrazol-3-yl)-6-(1-isopropyl-1H-pyrazol-3-yl)-5-methyl-2-(1-methyl-1H-imidazol-2-yl)pyrrolo[2,1-f][1,2,4]triazin-4-amine] | 0
